Data published in paper PMC2829425 (Protein expression and purification, 2010).

What was measured:
[1] = biological target: T1, zebrafish monoamine oxidase (zMAO) (Danio rerio, UniProt Q6NSN2); assay: irreversible inhibition of purified enzyme; type: biochemical
T1 sequence (Q6NSN2 1-522): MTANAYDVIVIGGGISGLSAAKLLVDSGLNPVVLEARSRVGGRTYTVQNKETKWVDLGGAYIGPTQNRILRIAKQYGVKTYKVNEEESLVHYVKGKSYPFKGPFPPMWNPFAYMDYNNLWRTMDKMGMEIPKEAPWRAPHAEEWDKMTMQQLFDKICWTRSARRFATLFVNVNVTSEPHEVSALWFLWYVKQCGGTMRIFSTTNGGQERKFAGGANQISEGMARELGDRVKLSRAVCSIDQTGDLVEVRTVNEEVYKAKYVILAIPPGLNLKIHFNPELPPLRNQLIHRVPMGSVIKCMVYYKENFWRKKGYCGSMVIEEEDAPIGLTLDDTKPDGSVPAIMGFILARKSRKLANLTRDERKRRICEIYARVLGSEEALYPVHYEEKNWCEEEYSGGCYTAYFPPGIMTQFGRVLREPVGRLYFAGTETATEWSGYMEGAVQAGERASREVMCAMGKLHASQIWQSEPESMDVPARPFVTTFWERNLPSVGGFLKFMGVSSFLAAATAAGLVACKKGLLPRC

[2] = biological target: T1, zebrafish monoamine oxidase (zMAO); assay: specific activity of purified enzyme, 4-hydroxyquinoline formation at […] nm; type: biochemical
[3] = biological target: T1, zebrafish monoamine oxidase (zMAO); assay: steady-state kinetics, benzaldehyde formation at […] nm; type: biochemical; conditions: read-out: Benzylamine
[4] = substrate: NCCc1ccccc1; assay: steady-state kinetics, Amplex red/peroxidase-coupled assay; type: biochemical, Danio rerio; conditions: covalent FAD ([…]α-S-cysteinylFAD); pH 7.4; 25.0 °C

**Q.** `C#CCN(C)C(C)Cc1ccccc1` (stereo not shown) [Deprenyl] was tested. Which IC50 [1] did it give?
**A.** 6.5 µM

**Q.** For `C#CCN(C)CCCOc1ccc(Cl)cc1Cl` [Clorgyline], which IC50 [1] is on record?
**A.** 64 µM

**Q.** For `NCCC(=O)c1ccccc1N` [Kynuramine], which “specific activity of purified enzyme, 4-hydroxyquinoline formation at 316 nm” value [2] is on record?
**A.** 1.5 U/mg

**Q.** How did the Km [3] turn out when `NCc1ccccc1` [Benzylamine] was run?
**A.** 82.2 ± 9 µM

B1: zebrafish monoamine oxidase (zMAO) (Danio rerio) (protein)
chain: MTANAYDVIVIGGGISGLSAAKLLVDSGLNPVVLEARSRVGGRTYTVQNKETKWVDLGGAYIGPTQNRILRIAKQYGVKTYKVNEEESLVHYVKGKSYPFKGPFPPMWNPFAYMDYNNLWRTMDKMGMEIPKEAPWRAPHAEEWDKMTMQQLFDKICWTRSARRFATLFVNVNVTSEPHEVSALWFLWYVKQCGGTMRIFSTTNGGQERKFAGGANQISEGMARELGDRVKLSRAVCSIDQTGDLVEVRTVNEEVYKAKYVILAIPPGLNLKIHFNPELPPLRNQLIHRVPMGSVIKCMVYYKENFWRKKGYCGSMVIEEEDAPIGLTLDDTKPDGSVPAIMGFILARKSRKLANLTRDERKRRICEIYARVLGSEEALYPVHYEEKNWCEEEYSGGCYTAYFPPGIMTQFGRVLREPVGRLYFAGTETATEWSGYMEGAVQAGERASREVMCAMGKLHASQIWQSEPESMDVPARPFVTTFWERNLPSVGGFLKFMGVSSFLAAATAAGLVACKKGLLPRC
**Q.** With B1 as the molecule, how does the Km [4] read?
**A.** 86 ± 13 µM

**Q.** And the kcat [4]?
**A.** 3.4 ± 0.145 s⁻¹

**Q.** And the kcat/Km [4]?
**A.** 39500 ± 3170 M⁻¹ s⁻¹
